According to PMC6433934, “Preclinical Evaluation of Bispecific Adaptor Molecule Controlled Folate Receptor CAR-T Cell Therapy With Special Focus on Pediatric Malignancies” (Frontiers in Oncology, 2019):

Tests used:
[1] = tested on: HOS-FRα tumors; test: Osteosarcoma study, subcutaneous xenografts, EC17 dose escalation; format: in vivo
Procedure: (§1) All animal care and use were performed according to NIH guidelines and in compliance with protocols approved by the Purdue University Animal Use and Care Committee. Female 4 to 5-weeks-old NOD/SCID gamma (NSG™) mice (stock number: 005557) were purchased from The Jackson Laboratory (Bar Harbor, ME). Unless specifically indicated, all animals were maintained on a FA-deficient diet (TestDiet, St. Louis, MO) upon arrival and throughout the study. To establish subcutaneous xenografts, MDA-MB-231 and HOS-FRα were implanted in the right flank region at 2.5 × 10^6 and 1 × 10^6 cells per animal, respectively. For intravenous xenografts, THP1-FRβ cells were inoculated at 5 × 10^6 cells per animal. Subcutaneous tumors were measured 2–3 times per week with a caliper and calculated using the ellipsoidal formula (length x width^2)/2. […] All animal doses (CAR-T cells, EC17, sodium fluorescein) were given intravenously.
For osteosarcoma study, two cohorts of mice were subcutaneously implanted with HOS-FRα tumor cells 3 days prior to receiving ~6 million of the same CAR-T cell preparation used in the THP1-FRβ study. At ~3.5 days post CAR-T cell infusion, one cohort of mice was given up to 3 cycles of EC17 at 5/10/100 nmol/kg in Cycle 1, 5/30/300 nmol/kg in Cycle 2, and 5/50/500 nmol/kg in Cycle 3, all following the Monday/Thursday/Monday regimen with a 6 day break in-between cycles. At the end of study, circulating CD3ε+ EGFRt+ CAR-T cells per 100 μL of mouse blood were enumerated. HOS-FRα tumors (+/- EC17 treatment) were also harvested and digested for flow cytometric analysis of tumor-infiltrating CAR-T cells.
Depending on the CAR-T cell dose and how EC17 is administered, tumor-bearing mice receiving FITC-specific CAR-T cells can experience severe CRS and varying degrees of body weight loss ([27], [33], [34]). Therefore, we developed a CRS grading system (0–5 scale) to empirically assess CRS toxicity from animals' gross morphology and social behavior to allow for better timing of CRS rescue. While grades 0 and 5 indicated normal (no CRS) or death (due to severe CRS), respectively, grades 1, 2, and 3–4 were considered mild, light-to-moderate, and severe CRS. In addition, all EC17 doses were intentionally given toward the end of any given day to allow potential CRS symptoms to develop overnight. On the days immediately following each EC17 dose, animals were scored and rescue agents such as sodium fluorescein, folic acid and leucovorin were used to mitigate CRS toxicity ([33]). In this particular instance, a batch of E2-CAR-T cells with a high EGFRt+ CD4/CD8 ratio (~93:7) was given to HOS-FRα tumor-bearing mice at a mixture of ~2.5 million CD8 and ~33 million CD4 on day 0. […]

[2] = tested on: MDA-MB-231 tumor; test: Kinetics of CAR-T cell expansion and tumor uptake in vivo; design: species or system NSG mice; conditions: ~4.8 million EGFRt-sorted E2-CAR-T cells day 0, EC17 500 nmol/kg weekly i.v.
Procedure: as §1
To study CAR-T cell expansion in vivo, we started with 15 MDA-MB-231 tumor bearing mice having ~4.8 million EGFRt-sorted E2-CAR-T cells (1:1 CD4/CD8) injected on day 0. […] For each collection, fresh blood and tumor samples (if available) were analyzed for the presence of human CD3ε+ EGFRt+ CAR-T cells by flow cytometry. Moreover, we analyzed phenotypic changes of E2-CAR-T cells in the circulation (TSCM, TCM, TEM, and TEFF) and the activation status of tumor-infiltrating CAR-T cells (i.e., CD137/4-1BB, PD1).
For CAR-T cell analysis in the circulation, plasma was removed from a predetermined volume of whole blood collected into tubes containing ethylenediaminetetraacetic acid anticoagulant. […] A minimum of 20,000 propidium iodide negative live cell events were collected on the Gallios flow cytometer and analyzed with the Kaluza software, version 2.1 (Beckman Coulter, Brea, CA). CAR-positive T cells were identified in mouse blood as human CD3ε+ EGFRt+ events and absolute numbers per volume of blood were calculated using equal numbers of CountBright™ beads (Invitrogen, Carlsbad, CA) added to each sample. […]

For `Nc1nc2ncc(CNc3ccc(C(=O)NC(CCC(=O)NCCNC(=S)Nc4ccc(-c5c6ccc(=O)cc-6oc6cc(O)ccc56)c(C(=O)O)c4)C(=O)O)cc3)nc2c(=O)[nH]1` (stereo not shown) [EC17, FA-(γ)-ethylenediamine-FITC], the “safety (CRS, body weight)” value ([1]; EC17 M/Th/M escalation 5/10/100, 5/30/300, 5/50/500 nmol/kg, ~6 million E2-CAR-T cells) was “no CRS or body weight loss”, the tumor growth ([1]; EC17 M/Th/M escalation, within the first two cycles, ~6 million E2-CAR-T cells) was “significant delay in tumor growth” and the cures ([1]; HOS-FRα xenografts, EC17 plus E2-CAR-T cells) was “no cures”. The “intratumoral CD3ε+ EGFRt+ CAR-T cell population” value ([1]; day 33, EC17-treated animals) was ~ 1 % total viable digested tumor-derived cells, the “time of peak of circulating CAR-T cells” value [2] was roughly 15 days and the tumor response ([2]; smaller tumors) was “started to respond after the second EC17 dose”. For the same compound, the “persistence of circulating CAR-T cells” value ([2]; last analysis by flow cytometry) was “up to 30 days”.
